Source: US20120245201A1, “Isopropylphenidate for Treatment of Attention-Deficit/Hyperactivity Disorder and Fatigue-Related Disorders and Conditions” (priority 2009, published 2012)

Key:
[1] = target: T1, [3H]-(±)-MPH binding to rat brain striatal synaptosomes (Rattus norvegicus, UniProt P23977); conditions: mg/mg comparison; cited from earlier work
T1 construct: host or cells: rat brain striatal synaptosomes

[2] = test system: male rats of the Sprague-Dawley strain; experiment: Locomotor activity measurement in rats; type: in vivo, rat
Protocol: FIGS. 4A-B—Locomotor activity of SD rats after i.p. injection of IPH (10 mg/kg) and saline. The time course of locomotor response over a 120 min period following i.p. administration of IPH (10 mg/kg) versus saline is shown in FIG. 4A. As expected, IPH produced robust effects on locomotor activity in rats compared to saline injections at every 10 min period recorded post-dosing with a mean of nearly 1200 counts recorded during the initial 10 min measurement. Shown in FIG. 4B are the cumulative locomotor activity counts over the entire 120 min study period.
Chemical compounds. dl-threo-methylphenidate (MPH) was purchased from Sigma-Aldrich (St. Louis, Mo.). dl-isopropylphenidate (IPH) was also synthesized in the inventors' laboratory using the following method. In brief, (±)-ritalinic acid (2 mmol) was dissolved in isopropyl alcohol saturated with HCl gas (75 ml) and refluxed for 24 h under nitrogen. […] All compounds studied were assessed as their HCl salts. […]
Locomotor Activity Measurement in Rats. Locomotor-inducing activity of IPH was measured according to methods previously described by Patrick and associates during their establishment the differential pharmacology of the enantiomers of MPH (Patrick et al., 1987) as well as hydroxylated metabolites of MPH (Patrick et al., 1981). […] In brief, following an initial 60 min habituation period to the activity chamber, racemic IPH (or saline) was administered intraperitonealy (i.p.) to each animal (n=5 per active drug group; n=3 per saline group) at a dose of 10 mg/kg to correspond with 10 mg of racemic MPH (delivering 5 mg of d-MPH) which was previously determined to produce maximal behavioral responses (Patrick et al., 1987). […] Locomotor activity was recorded within doughnut-shaped cages with six photocell sensors equally spaced around a 9 cm runway. Activity counts as assessed by light-beam interruptions were recorded for each animal in increments of 10 minutes over a 2 hr period. Differences in the cumulative motor activity accounts were assessed by the unpaired, two-tailed Student t-test. […]

dogs = conditions: reserpine pre-treated dogs; cited from earlier work
[3] = test system: human liver microsomes (HLM); experiment: Hydrolysis to ritalinic acid by human liver microsomes; type: in vitro ADME; conditions: 1 mM substrate, 0.2 mg/ml HLM, 37° C., 60 min
Protocol: FIG. 2—Hydrolysis of methylphenidate (MPH) and isopropylphenidate (IPH) by recombinant human CES1, HLM, HIM. After incubation with CES 1 transfected human cells, HLM, and HIM at 37° C. for 60 min, the metabolite RA produced via hydrolysis of MPH and IPH was determined by HPLC. Data are presented as mean±SEM of 3 to 6 independent experiments.
Determination of Relative Hydrolytic Rates of MPH and IPH. The assessment of relative rates of hydrolysis of the two ester compounds utilized both cell culture and human liver microsomes (HLM) and human intestinal microsomes (HIM). The human carboxylesterase 1 (hCES1) s9 fraction was prepared utilizing a novel method developed in the inventors' laboratory previously (Zhu et al., 2008). Hydrolysis of IPH and MPH by hCES1, HLM, and human intestinal microsomes was assessed by incubating the substrates with the respective enzymes and measuring the formation of the major metabolite RA formed via ester hydrolysis. Briefly, 50 μl of freshly prepared substrates (IPH and MPH) was mixed with 50 μl of enzymes in 1.5 ml Eppendorf tubes yielding a total volume of 100 μl. […] Concentrations of the primary hydrolytic product of the two compounds, RA were determined utilizing a validated HPLC method previously described.

Sprague-Dawley rats = conditions: intracerebroventricular; cited from earlier work
[4] = immediate-release tablet; cited from earlier work

T1 sequence (P23977 whole entry): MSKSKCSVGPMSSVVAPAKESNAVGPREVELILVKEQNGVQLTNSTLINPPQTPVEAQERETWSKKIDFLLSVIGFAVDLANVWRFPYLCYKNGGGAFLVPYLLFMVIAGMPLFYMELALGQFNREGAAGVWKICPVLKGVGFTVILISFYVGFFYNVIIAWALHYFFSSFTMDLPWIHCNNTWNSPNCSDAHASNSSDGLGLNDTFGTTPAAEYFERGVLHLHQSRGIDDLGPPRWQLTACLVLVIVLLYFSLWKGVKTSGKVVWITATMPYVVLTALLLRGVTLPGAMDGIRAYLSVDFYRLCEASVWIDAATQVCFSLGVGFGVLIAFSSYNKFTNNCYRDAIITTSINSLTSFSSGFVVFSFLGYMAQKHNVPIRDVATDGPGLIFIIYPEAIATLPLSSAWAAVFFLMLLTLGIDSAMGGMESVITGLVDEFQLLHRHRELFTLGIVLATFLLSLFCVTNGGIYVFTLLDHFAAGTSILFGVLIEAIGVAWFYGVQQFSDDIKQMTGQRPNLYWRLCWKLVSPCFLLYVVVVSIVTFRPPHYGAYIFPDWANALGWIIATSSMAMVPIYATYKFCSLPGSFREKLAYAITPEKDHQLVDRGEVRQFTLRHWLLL

Compound | activity relative to MPH in inhibition of [3H]-(±)-MPH binding [1] | mean locomotor activity counts during the initial 10 min measurement ([2]; 10 mg/kg i.p., SD rats) | cumulative locomotor activity counts over 120 min versus saline ([2]; 10 mg/kg i.p., SD rats, p<0.01) | locomotor responses compared with d-MPH 5 mg/kg of the earlier study (Patrick et al., 1987) ([2]; racemic IPH 10 mg/kg i.p., identical experimental conditions) | potency versus MPH in antagonizing the physiological influences of reserpine (dogs) | resistance to hydrolysis by HLM [3] | duration of locomotor activity (Sprague-Dawley rats) | plasma half-life [4]
CC(C)OC(=O)C(c1ccccc1)C1CCCCN1 (racemic) [IPH, dl-threo-α-phenyl-2-piperidineacetic acid isopropyl ester] | approximately one third | ~1200 counts | significantly elevated | more potent and sustained locomotor responses | lower potency | most resistant substrate to HLM | – | –
COC(=O)C(c1ccccc1)C1CCCCN1 (racemic) [MPH, dl-threo-methylphenidate, reference compound] | – | – | – | – | – | – | 60 min | 2 to 3 h
